Experimental data reported in US20170050957A1, “4-AMINO-6-(HETEROCYCLIC)PICOLINATES AND 6-AMINO-2-(HETEROCYCLIC)PYRIMIDINE-4-CARBOXYLATES AND THEIR USE AS HERBICIDES” (Dow AgroSciences LLC, priority 2013, published 2017).
Like-named read-outs stand apart in the source and are kept apart here.

Legend:
[1] = system: Key Grass and Sedge Weeds as well as Grass Crops; assay: Post-emergent Test II herbicidal activity (Table 16); assay type: in vivo; conditions: post-emergence, 336 h, 14 days after application; for pest or weed control at 35 g/ha: 35 g ai/ha; for pest or weed control at 70 g/ha: 70 g ai/ha; for pest or weed control at 140 g/ha: 140 g ai/ha
In short: (§1)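 Greenhouse-grown seedlings at first/second true leaf receive a track spray at 187 L/ha, using a highest rate plus two-fold serial dilutions down to 1/16×. Watering is by subirrigation to avoid wash-off. Percent injury (0-100) is judged by eye at 14 d against untreated plants.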

[2] = system: Key Broadleaf Weed and Crop Species; assay: Post-emergent Test II herbicidal activity (Table 15); assay type: in vivo; conditions: post-emergence, 336 h, 14 d; for pest or weed control at 35 g/ha: 35 g ai/ha; for pest or weed control at 70 g/ha: 70 g ai/ha; for pest or weed control at 140 g/ha: 140 g ai/ha
In short: as §1

[3] = Cyperus esculentus, yellow nutsedge (Cyperus esculentus), read-out: Visual Growth Reduction (%) 14 Days After Application CYPES
[4] = Echinochloa crus-galli, barnyardgrass (Echinochloa crus-galli), read-out: Visual Growth Reduction (%) 14 Days After Application ECHCG
[5] = Oryza sativa, rice (Oryza sativa), read-out: Visual Growth Reduction (%) 14 Days After Application ORYSA
[6] = Setaria faberi, giant foxtail (Setaria faberi), read-out: Visual Growth Reduction (%) 14 Days After Application SETFA
[7] = Triticum aestivum, wheat, spring (Triticum aestivum), read-out: Visual Growth Reduction (%) 14 Days After Application TRZAS
[8] = Zea mays, maize, corn (Zea mays), read-out: Visual Growth Reduction (%) 14 Days After Application ZEAMX
[9] = Abutilon theophrasti, velvetleaf (Abutilon theophrasti), read-out: Visual Growth Reduction (%) 14 Days After Application, ABUTH
[10] = Amaranthus retroflexus, redroot pigweed (Amaranthus retroflexus), read-out: Visual Growth Reduction (%) 14 Days After Application, AMARE
[11] = Brassica napus, oilseed rape, canola (Brassica napus), read-out: Visual Growth Reduction (%) 14 Days After Application, BRSNN
[12] = Chenopodium album, lambsquarters (Chenopodium album), read-out: Visual Growth Reduction (%) 14 Days After Application, CHEAL
[13] = Euphorbia heterophylla, wild poinsettia (Euphorbia heterophylla), read-out: Visual Growth Reduction (%) 14 Days After Application, EPHHL
[14] = Helianthus annuus, sunflower (Helianthus annuus), read-out: Visual Growth Reduction (%) 14 Days After Application, HELAN

Row | Compound | pest or weed control at 35 g/ha [1, 3] [%] | pest or weed control at 70 g/ha [1, 3] [%] | pest or weed control at 140 g/ha [1, 3] [%] | pest or weed control at 35 g/ha [1, 4] [%] | pest or weed control at 70 g/ha [1, 4] [%] | pest or weed control at 140 g/ha [1, 4] [%] | pest or weed control at 35 g/ha [1, 5] [%] | pest or weed control at 70 g/ha [1, 5] [%] | pest or weed control at 140 g/ha [1, 5] [%] | pest or weed control at 35 g/ha [1, 6] [%] | pest or weed control at 70 g/ha [1, 6] [%] | pest or weed control at 140 g/ha [1, 6] [%] | pest or weed control at 35 g/ha [1, 7] [%] | pest or weed control at 70 g/ha [1, 7] [%] | pest or weed control at 140 g/ha [1, 7] [%] | pest or weed control at 35 g/ha [1, 8] [%] | pest or weed control at 70 g/ha [1, 8] [%] | pest or weed control at 140 g/ha [1, 8] [%] | melting point [°C] | pest or weed control at 35 g/ha [2, 9] [%] | further results
1 | COC(=O)c1nc(-c2cc3sccc3cc2F)c(F)c(N)c1Cl [Compound 3.14] | 0 to 29 | 0 to 29 | 0 to 29 | 0 to 29 | 0 to 29 | 0 to 29 | 0 to 29 | 0 to 29 | 0 to 29 | 0 to 29 | 0 to 29 | 0 to 29 | 0 to 29 | 0 to 29 | 0 to 29 | 0 to 29 | 30 to 44 | 60 to 74 | 112 | 0 to 29 | pest or weed control at 70 g/ha [2, 9]: 0 to 29%; pest or weed control at 140 g/ha [2, 9]: 0 to 29%; pest or weed control at 35 g/ha [2, 10]: 85 to 94%; pest or weed control at 70 g/ha [2, 10]: 95 to 100%; pest or weed control at 140 g/ha [2, 10]: 95 to 100%; pest or weed control at 35 g/ha [2, 11]: 0 to 29%; pest or weed control at 70 g/ha [2, 11]: 0 to 29%; pest or weed control at 140 g/ha [2, 11]: 0 to 29%; pest or weed control at 35 g/ha [2, 12]: 85 to 94%; pest or weed control at 70 g/ha [2, 12]: 85 to 94%; pest or weed control at 140 g/ha [2, 12]: 95 to 100%; pest or weed control at 35 g/ha [2, 13]: 30 to 44%; pest or weed control at 70 g/ha [2, 13]: 30 to 44%; pest or weed control at 140 g/ha [2, 13]: 60 to 74%; pest or weed control at 35 g/ha [2, 14]: 85 to 94%; pest or weed control at 70 g/ha [2, 14]: 85 to 94%; pest or weed control at 140 g/ha [2, 14]: 95 to 100%
2 | Nc1cc(-c2ccc3ccsc3c2)nc(C(=O)O)c1Cl [Compound 3.16] | 0 to 29 | 0 to 29 | 45 to 59 | 75 to 84 | 75 to 84 | 75 to 84 | 0 to 29 | 0 to 29 | 0 to 29 | 0 to 29 | 0 to 29 | 0 to 29 | 0 to 29 | 0 to 29 | 0 to 29 | 60 to 74 | 60 to 74 | 75 to 84 | 176 to 177 | 60 to 74 | pest or weed control at 70 g/ha [2, 9]: 60 to 74%; pest or weed control at 140 g/ha [2, 9]: 75 to 84%; pest or weed control at 35 g/ha [2, 10]: 85 to 94%; pest or weed control at 70 g/ha [2, 10]: 95 to 100%; pest or weed control at 140 g/ha [2, 10]: 85 to 94%; pest or weed control at 35 g/ha [2, 11]: 0 to 29%; pest or weed control at 70 g/ha [2, 11]: 0 to 29%; pest or weed control at 140 g/ha [2, 11]: 45 to 59%; pest or weed control at 35 g/ha [2, 12]: 85 to 94%; pest or weed control at 70 g/ha [2, 12]: 85 to 94%; pest or weed control at 140 g/ha [2, 12]: 85 to 94%; pest or weed control at 35 g/ha [2, 13]: 60 to 74%; pest or weed control at 70 g/ha [2, 13]: 60 to 74%; pest or weed control at 140 g/ha [2, 13]: 60 to 74%; pest or weed control at 35 g/ha [2, 14]: 0 to 29%; pest or weed control at 70 g/ha [2, 14]: 0 to 29%; pest or weed control at 140 g/ha [2, 14]: 0 to 29%
3 | COC(=O)c1nc(-c2cc3sccc3cc2F)cc(N)c1Cl [Compound 3.17] | 0 to 29 | 0 to 29 | 0 to 29 | 45 to 59 | 60 to 74 | 95 to 100 | 0 to 29 | 0 to 29 | 0 to 29 | 0 to 29 | 0 to 29 | 30 to 44 | 0 to 29 | 0 to 29 | 0 to 29 | 30 to 44 | 60 to 74 | 75 to 84 | 70 | 0 to 29 | pest or weed control at 70 g/ha [2, 9]: 45 to 59%; pest or weed control at 140 g/ha [2, 9]: 60 to 74%; pest or weed control at 35 g/ha [2, 10]: 75 to 84%; pest or weed control at 70 g/ha [2, 10]: 95 to 100%; pest or weed control at 140 g/ha [2, 10]: 95 to 100%; pest or weed control at 35 g/ha [2, 11]: 0 to 29%; pest or weed control at 70 g/ha [2, 11]: 0 to 29%; pest or weed control at 140 g/ha [2, 11]: 60 to 74%; pest or weed control at 35 g/ha [2, 12]: 85 to 94%; pest or weed control at 70 g/ha [2, 12]: 95 to 100%; pest or weed control at 140 g/ha [2, 12]: 95 to 100%; pest or weed control at 35 g/ha [2, 13]: 45 to 59%; pest or weed control at 70 g/ha [2, 13]: 60 to 74%; pest or weed control at 140 g/ha [2, 13]: 75 to 84%; pest or weed control at 35 g/ha [2, 14]: 0 to 29%; pest or weed control at 70 g/ha [2, 14]: 0 to 29%; pest or weed control at 140 g/ha [2, 14]: 30 to 44%
